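The compound was tested at five concentrations on cells cultured in 96-well plates, with a 48-hour exposure period. Here, GI50 denotes the concentration required for 50% inhibition of growth.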 Calls of active or inactive are those of the source. Rule as the data show it: active = GI50 up to about 1.1 µM and inactive = higher.
Key:
Assay in all cases: NCI-60 cell line screen, 48 h
786-0 = tested on: 786-0
DU-145 = tested on: DU-145
HCT-116 = tested on: HCT-116
HCT-15 = tested on: HCT-15
HT-29 = tested on: HT-29
KM12 = tested on: KM12
MDA-MB-231 = tested on: MDA-MB-231
MDA-MB-435 = tested on: MDA-MB-435
NCI-H522 = tested on: NCI-H522
OVCAR-3 = tested on: OVCAR-3
SF-268 = tested on: SF-268
SF-295 = tested on: SF-295
SK-MEL-2 = tested on: SK-MEL-2
SK-MEL-5 = tested on: SK-MEL-5
SNB-19 = tested on: SNB-19
SR = tested on: SR
TK-10 = tested on: TK-10
EKVX = tested on: EKVX
RXF 393 = tested on: RXF 393

| SMILES | GI50 (786-0) | GI50 (DU-145) | GI50 (HCT-116) | GI50 (HCT-15) [µM] | GI50 (HT-29) | GI50 (KM12) | GI50 (MDA-MB-231) | GI50 (MDA-MB-435) | GI50 (NCI-H522) | GI50 (OVCAR-3) | GI50 (SF-268) | GI50 (SF-295) | GI50 (SK-MEL-2) | GI50 (SK-MEL-5) | GI50 (SNB-19) | GI50 (SR) | GI50 (TK-10) | GI50 (EKVX) | GI50 (RXF 393) |
| --- | --- | --- | --- | --- | --- | --- | --- | --- | --- | --- | --- | --- | --- | --- | --- | --- | --- | --- | --- |
| O=C(NCCNCCO)N/N=C/c1ccc(Cl)cc1 | > 100 µM (inactive) | > 100 µM (inactive) | > 100 µM (inactive) | > 100 | > 100 µM (inactive) | > 100 µM (inactive) | > 100 µM (inactive) | > 100 µM (inactive) | > 100 µM (inactive) | > 100 µM (inactive) | > 100 µM (inactive) | > 100 µM (inactive) | > 100 µM (inactive) | > 100 µM (inactive) | > 100 µM (inactive) | > 100 µM (inactive) | > 100 µM (inactive) | – | – |
| COCP1(=S)OC(C)CCN1C(C)C (stereo not given) | > 100 µM (inactive) | > 100 µM (inactive) | > 100 µM (inactive) | > 100 | > 100 µM (inactive) | > 100 µM (inactive) | > 100 µM (inactive) | > 100 µM (inactive) | – | > 100 µM (inactive) | > 100 µM (inactive) | > 100 µM (inactive) | > 100 µM (inactive) | > 100 µM (inactive) | > 100 µM (inactive) | > 100 µM (inactive) | > 100 µM (inactive) | > 100 µM (inactive) | – |
| O=C(CC(C(=O)c1cccs1)c1ccsc1)c1ccc(Cl)s1 (stereo not given) | > 100 µM (inactive) | > 100 µM (inactive) | 47.5 µM (inactive) | 73.3 | 75.9 µM (inactive) | > 100 µM (inactive) | > 100 µM (inactive) | 85.7 µM (inactive) | – | – | > 100 µM (inactive) | – | > 100 µM (inactive) | 70.3 µM (inactive) | 72.3 µM (inactive) | 39.2 µM (inactive) | > 100 µM (inactive) | 50.7 µM (inactive) | – |
| Cc1ccc(/C=C2\CCS(=O)(=O)c3ccccc3C2=O)cc1 | 16.3 µM (inactive) | 14.2 µM (inactive) | 13.1 µM (inactive) | 11.9 | 17 µM (inactive) | 15.5 µM (inactive) | 16.9 µM (inactive) | 20.6 µM (inactive) | – | 17.2 µM (inactive) | 18.3 µM (inactive) | 19.2 µM (inactive) | 21.9 µM (inactive) | – | 16.1 µM (inactive) | 10.6 µM (inactive) | 16.6 µM (inactive) | 17.6 µM (inactive) | 22.7 µM (inactive) |
| Oc1ccc(-c2cc(-c3c(O)cc(O)cc3O)on2)cc1 | 93.5 µM (inactive) | 53.1 µM (inactive) | 42.5 µM (inactive) | 56.8 | 37 µM (inactive) | 72.6 µM (inactive) | > 100 µM (inactive) | 56.1 µM (inactive) | 51.6 µM (inactive) | > 100 µM (inactive) | 44.3 µM (inactive) | 74.3 µM (inactive) | > 100 µM (inactive) | 42.3 µM (inactive) | 91.2 µM (inactive) | 81.3 µM (inactive) | 55.1 µM (inactive) | 62.7 µM (inactive) | – |
| Cc1cc(C)nc(NS(=O)(=O)c2ccc(Nc3c4ccccc4nc4c(C(=O)NCCO)cccc34)cc2)n1 | > 10 µM (inactive) | 40.8 µM (inactive) | – | 17.8 | 13.1 µM (inactive) | 10.9 µM (inactive) | 12.4 µM (inactive) | 16.6 µM (inactive) | 12.3 µM (inactive) | 19.8 µM (inactive) | 14.5 µM (inactive) | 11.8 µM (inactive) | 11.8 µM (inactive) | 17.1 µM (inactive) | 16.6 µM (inactive) | 10.7 µM (inactive) | – | 41.5 µM (inactive) | – |

From ChEMBL document CHEMBL1201862, “PubChem BioAssay data set” (2004)
